# Experimental data from publication PMC9458111, “New 1,2,3-Triazole-Coumarin-Glycoside Hybrids and Their 1,2,4-Triazolyl Thioglycoside Analogs Targeting Mitochondria Apoptotic Pathway: Synthesis, Anticancer Activity and Docking Simulation” (Molecules, 2022).
# Key:
# caspase-7 in MCF-7 cells = experiment: Caspase-7 level in MCF-7 cells (ELISA); format: cell-based, human; conditions: MCF-7, 24 h, versus 5-fluorouracil or untreated cells
# Protocol: Referring to the cytotoxicity results, the 1,2,4-triazole-thioglycoside derivative 10 has a mitochondria-apoptotic effect on breast cancer cells through reduction of MTT by a mitochondrial enzyme. […] Along with that, such derivative elevated the release of cytochrome c into the cytosol in the treated MCF-7, in comparison with untreated one from 0.176 to 0.766 ng/ml due to disturbing mitochondrial outer membrane permeability (MOMP). In addition, the target 10 achieved better results than those afforded by from the standard 5-fluorouracil. Moreover, the level of caspase-7 was elevated in treated cells with the target 10 rather than that with 5-fluorouracil or the untreated cells as shown in Figure 4.
# The micro-ELISA plate was provided in this kit pre-coated with a CASP-7-specific antibody. A biotinylated CASP-7 antibody and Avidin–horseradish peroxidase (HRP) conjugate were added. Get rid of the excess components. The substrate solution was added. Wells that contain CASP-7, biotinylated detection antibody, and Avidin-HRP conjugate will appear blue in color. The color turns yellow following the addition of sulfuric acid solution. The optical density (OD) was measured at a wavelength of 450 nm ±2 nm. […]
# VEGFR-2 = VEGFR-2 (Homo sapiens, UniProt P35968); experiment: VEGFR-2 inhibitory assay (ELISA); format: biochemical; conditions: mean of three values; read-out: IC50 (Mean ± SEM), VEGFR-2
# Protocol: The cells were harvested, and the homogenates were prepared in saline using a tight pestle homogenizer until complete cell disruption. The kit uses a double-antibody sandwich enzyme-linked immunosorbent assay (ELISA) to determine the level of human VEGFR-2 in samples. A monoclonal antibody for VEGFR-2 was pre-coated onto 96-well plates. The test samples are added to the wells, and a biotinylated detection polyclonal antibody from goat specific for VEGFR-2 was added subsequently followed by washing with PBS buffer. Avidin-Biotin-Peroxidase complex was added, and the unbound conjugates were washed away with PBS buffer. HRP substrate TMB was used to visualize HRP enzymatic reaction. TMB was catalyzed by HRP to produce a blue color product that changed into yellow after adding acidic stop solution. The density of yellow color is proportional to the human VEGFR-2 amount of the sample captured in the plate. The chroma of color and the concentration of the human VEGFR-2 of the samples were positively correlated, and the optical density was determined at 450 nm. The level of human VEGFR-2 in samples was calculated (pg/ml) as duplicate determinations from the standard curve. Percent inhibition was calculated in comparison to control untreated cells.
# Sequence of VEGFR-2 (P35968 20-1356): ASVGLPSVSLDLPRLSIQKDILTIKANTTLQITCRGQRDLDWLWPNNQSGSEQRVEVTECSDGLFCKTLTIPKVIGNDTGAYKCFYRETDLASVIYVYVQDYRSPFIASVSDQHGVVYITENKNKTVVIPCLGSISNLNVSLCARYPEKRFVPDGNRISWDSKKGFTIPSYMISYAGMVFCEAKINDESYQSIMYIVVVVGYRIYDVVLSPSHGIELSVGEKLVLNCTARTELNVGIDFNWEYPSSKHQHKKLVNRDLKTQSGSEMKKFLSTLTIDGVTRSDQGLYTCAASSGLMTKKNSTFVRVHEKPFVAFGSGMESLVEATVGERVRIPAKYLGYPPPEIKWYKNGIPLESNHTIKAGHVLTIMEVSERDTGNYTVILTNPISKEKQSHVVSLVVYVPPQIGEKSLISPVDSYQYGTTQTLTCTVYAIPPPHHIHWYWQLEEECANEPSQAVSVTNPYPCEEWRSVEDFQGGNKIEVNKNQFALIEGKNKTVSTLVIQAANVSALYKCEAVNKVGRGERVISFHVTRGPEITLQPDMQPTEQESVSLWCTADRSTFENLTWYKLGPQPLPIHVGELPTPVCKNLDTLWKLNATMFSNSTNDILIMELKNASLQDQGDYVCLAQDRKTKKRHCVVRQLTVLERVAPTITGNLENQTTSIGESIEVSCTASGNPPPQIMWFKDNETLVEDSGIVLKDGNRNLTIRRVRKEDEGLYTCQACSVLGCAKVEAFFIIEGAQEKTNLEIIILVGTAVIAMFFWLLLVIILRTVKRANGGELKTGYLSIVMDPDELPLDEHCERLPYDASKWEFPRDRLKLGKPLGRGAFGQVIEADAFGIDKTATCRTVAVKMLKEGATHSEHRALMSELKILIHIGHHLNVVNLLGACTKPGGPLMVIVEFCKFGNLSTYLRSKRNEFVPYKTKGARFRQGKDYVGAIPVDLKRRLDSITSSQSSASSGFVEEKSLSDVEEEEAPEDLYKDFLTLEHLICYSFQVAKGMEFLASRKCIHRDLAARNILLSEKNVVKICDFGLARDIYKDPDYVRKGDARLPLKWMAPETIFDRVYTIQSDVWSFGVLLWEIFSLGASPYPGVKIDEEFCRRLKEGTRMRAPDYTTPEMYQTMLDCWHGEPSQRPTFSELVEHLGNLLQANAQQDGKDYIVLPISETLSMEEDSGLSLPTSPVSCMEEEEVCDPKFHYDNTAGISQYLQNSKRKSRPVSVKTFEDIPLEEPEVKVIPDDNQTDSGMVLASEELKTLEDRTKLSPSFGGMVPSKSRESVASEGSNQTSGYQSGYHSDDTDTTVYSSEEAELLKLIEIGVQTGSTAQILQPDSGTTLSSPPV
smiles,measurement,setting,value
"CCn1c(COc2ccc3c(-c4ccccc4)cc(=O)oc3c2)nnc1SC1OCC(O)C(O)C1O [Compound 10, 4-Phenyl-7-((4-ethyl-5-(1-(β-D-xylopyranosyl)thio)-4H-1,2,4-triazol-3-yl)meth-oxy)-2H-chromen-2-one]",Level of caspase-7 (in words),caspase-7 in MCF-7 cells,elevated
same,IC50,VEGFR-2,790 ± 140 nM
